The text below walks through data of EP3915971A1, “PHENYL-S(O)N-PHENYLAMIDINES AND THE USE THEREOF AS FUNGICIDES” (Bayer Aktiengesellschaft, priority 2020, dated 2021).

Where only a bound is given, the exact number is not on record here.

Data set [1] can be described thus: LogP measurement by HPLC on reversed phase columns (EEC directive 79/831 Annex V.A8). The conditions noted are these: method [a]: LC-UV, acidic range, 0.1% formic acid in water and acetonitrile as eluent (linear gradient 10% to 95% acetonitrile). The data set is classed as physicochemical. On the procedure:
Measurement of LogP values was performed according to EEC directive 79/831 Annex V.A8 by HPLC (High Performance Liquid Chromatography) on reversed phase columns with the following methods: • ^[a] LogP value is determined by measurement of LC-UV, in an acidic range, with 0.1% formic acid in water and acetonitrile as eluent (linear gradient from 10% acetonitrile to 95% acetonitrile). • ^[b] LogP value is determined by measurement of LC-UV, in a neutral range, with 0.001 molar ammonium acetate solution in water and acetonitrile as eluent (linear gradient from 10% acetonitrile to 95% acetonitrile). • ^[c] LogP value is determined by measurement of LC-UV, in an acidic range, with 0.1% phosphoric acid and acetonitrile as eluent (linear gradient from 10% acetonitrile to 95% acetonitrile).
If more than one LogP value is available within the same method, all the values are given and separated by "+". […]

Another data set deals with Phakospora pachyrhizi. Nature of the data set: in vivo preventive test on Phakospora pachyrhizi (soybean rust). The conditions noted are these: for pest or weed control at 500 ppm: Glycine max, 264 h, 500 ppm of active ingredient, preventive spray on young soybean plants, inoculation after 24 hours, evaluated 11 days after inoculation, 0% = control plants, 100% = no disease, read-out: efficacy; for efficacy: 500 ppm. On the procedure: Example A: in vivo preventive test on Phakospora pachyrhizi (soybean rust) [table] The active ingredients were made soluble and homogenized in a mixture of Dimethyl sulfoxide/Acetone/ /Tween® 80 and then diluted in water to the desired concentration. The young plants of soybean were treated by spraying the active ingredient prepared as described above. Control plants were treated only with an aqueous solution of Acetone/Dimethyl sulfoxide/ Tween® 80. After 24 hours, the plants were contaminated by spraying the leaves with an aqueous suspension of Phakospora pachyrhizi spores. The contaminated soybean plants were incubated for 24 hours at 24°C and at 100% relative humidity and then for 10 days at 24°C and at 70-80% relative humidity. The test was evaluated 11 days after the inoculation. 0% means an efficacy which corresponds to that of the control plants while an efficacy of 100% means that no disease was observed.

As for `CCN(C)C=Nc1cc(F)c(Sc2ccccc2Cl)cc1C` [Example I-023, N'-[4-[(2-chlorophenyl)thio]-5-fluoro-2-methylphenyl]-N-ethyl-N-methylmethanimidamide], in data set [1] (reversed phase HPLC columns), the chromatographic logP is 1.69. Besides, in the data set with Phakospora pachyrhizi, the pest or weed control at 500 ppm was at least 70%.
Turning to `CCN(C)C=Nc1cc(Cl)c(Sc2ccccc2F)cc1C` [Example I-024, N'-[5-chloro-4-[(2-fluorophenyl)thio]-2-methylphenyl]-N-ethyl-N-methylmethanimidamide], in data set [1] (reversed phase HPLC columns), the chromatographic logP turned out to be 1.61. In the data set with Phakospora pachyrhizi, the pest or weed control at 500 ppm was at least 70%.
In the same order, the values of `CCN(C)C=Nc1cc(Cl)c(Sc2ccccc2C)cc1C` [Example I-025, N'-[5-chloro-2-methyl-4-[(2-methylphenyl)thio]phenyl]-N-ethyl-N-methylmethanimidamide] are 1.81 and at least 70%.
For the molecule `CCN(C)C=Nc1cc(Cl)c(S(=O)(=O)c2ccccc2F)cc1C` [Example I-026, N'-[5-chloro-4-(2-fluorophenyl)sulfonyl-2-methylphenyl]-N-ethyl-N-methylmethanimidamide], the chromatographic logP in data set [1] (reversed phase HPLC columns) turned out to be 1.42. In addition, the pest or weed control at 500 ppm in the data set with Phakospora pachyrhizi was at least 70%.
For `CCN(C)C=Nc1cc(Br)c(Sc2ccccc2)cc1C` [Example I-039, N'-(5-bromo-2-methyl-4-phenylsulfanylphenyl)-N-ethyl-N-methylmethanimidamide], in that order: 1.66 and at least 70%.
`CCN(C)C=Nc1cc(Cl)c(Sc2ccccc2)cc1C` [Example I-041, N'-(5-chloro-2-methyl-4-phenylsulfanylphenyl)-N-ethyl-N-methylmethanimidamide] gave a chromatographic logP in data set [1] (reversed phase HPLC columns) of 1.63. For the same molecule, in the data set on Phakospora pachyrhizi, the pest or weed control at 500 ppm is at least 70%.
As to `CCN(C)C=Nc1cc(Br)c(Sc2ccccc2C)cc1C` [Example I-042, N'-[5-bromo-2-methyl-4-[(2-methylphenyl)thio]phenyl]-N-ethyl-N-methylmethanimidamide], the chromatographic logP in data set [1] (reversed phase HPLC columns) is 1.81. Further, in the data set on Phakospora pachyrhizi, the pest or weed control at 500 ppm was at least 70%.
Take `CCN(C)C=Nc1cc(Br)c(S(=O)(=O)c2ccccc2Cl)cc1C` [Example I-044, N'-[5-bromo-4-(2-chlorophenyl)sulfonyl-2-methylphenyl]-N-ethyl-N-methylmethanimidamide]: the chromatographic logP in data set [1] (reversed phase HPLC columns) was found to be 1.58. The pest or weed control at 500 ppm with Phakospora pachyrhizi was at least 70%.
For `CCN(C)C=Nc1cc(Br)c(S(=O)(=O)c2ccccc2C)cc1C` [Example I-045, N'-[5-bromo-2-methyl-4-(2-methylphenyl)sulfonylphenyl]-N-ethyl-N-methylmethanimidamide], in that order: 1.53 and at least 70%.
For `CCN(C)C=Nc1cc(Br)c(Sc2ccccc2F)cc1C` [Example I-046, N'-[5-bromo-4-[(2-fluorophenyl)thio]-2-methylphenyl]-N-ethyl-N-methylmethanimidamide], in that order: 1.66 and at least 70%.
In the same order, the values of `CCN(C)C=Nc1cc(Br)c(Sc2ccccc2Cl)cc1C` [Example I-047, N'-[5-bromo-4-[(2-chlorophenyl)thio]-2-methylphenyl]-N-ethyl-N-methylmethanimidamide] are 1.84 and at least 70%.
Turning to `CCN(C)C=Nc1cc(C)c([S+]([O-])c2ccccc2C#N)cc1C` (centres unmarked) [Example I-052, N'-[4-(2-cyanophcnyl)sulfinyl-2,5-dimethylphenyl]-N-ethyl-N-methylmethanimidamide], in data set [1], the chromatographic logP came to 0.73. In addition, the efficacy entry in the data set on Phakospora pachyrhizi was “at least 70%”.
With `CCN(C)C=Nc1cc(C#N)c(Sc2ccccc2)cc1C` [Example I-054, N'-(5-cyano-2-methyl-4-phenylsulfanylphenyl)-N-ethyl-N-methylmethanimidamide], in data set [1] (reversed phase HPLC columns), the chromatographic logP turned out to be 1.42. The pest or weed control at 500 ppm in the data set on Phakospora pachyrhizi was at least 70%.
Take `CCN(C)C=Nc1cc(C#N)c(Sc2ccccc2C)cc1C` [Example I-058, N'-[5-cyano-2-methyl-4-[(2-methylphenyl)thio]phenyl]-N-ethyl-N-methylmethanimidamide]: the chromatographic logP in data set [1] (reversed phase HPLC columns) turned out to be 1.61. For the same molecule, in the data set on Phakospora pachyrhizi, the pest or weed control at 500 ppm is at least 70%.
In the same order, the values of `CCN(C)C=Nc1cc(C#N)c(Sc2ccccc2Cl)cc1C` [Example I-060, N'-[4-[(2-chlorophenyl)thio]-5-cyano-2-methylphenyl]-N-ethyl-N-methylmethanimidamide] are 1.66 and at least 70%.
On to `CCN(C)C=Nc1cc(Cl)c(Sc2ccccc2Cl)cc1C` [Example I-066, N'-[5-chloro-4-[(2-chlorophenyl)thio]-2-methylphenyl]-N-ethyl-N-methylmethanimidamide], for which, in data set [1] (reversed phase HPLC columns), the chromatographic logP worked out at 1.84. Further, the pest or weed control at 500 ppm with Phakospora pachyrhizi was at least 70%.
In the same order, the values of `CCN(C)C=Nc1cc(Cl)c(Sc2ccccc2C#N)cc1C` [Example I-067, N'-[5-chloro-4-[(2-cyanophenyl)thio]-2-methylphenyl]-N-ethyl-N-methylmethanimidamide] are 1.53 and at least 70%.
For `CCN(C)C=Nc1cc(Br)c(Sc2ccccc2C#N)cc1C` [Example I-068, N'-[5-bromo-4-[(2-cyanophenyl)thio]-2-methylphenyl]-N-ethyl-N-methylmethanimidamide], in that order: 1.53 and at least 70%.
`CCN(C)C=Nc1cc(C)c(Sc2ccccc2C#N)cc1C` [Example I-069, N'-[4-[(2-cyanophenyl)thio]-2,5-dimethylphenyl]-N-ethyl-N-methylmethanimidamide] had a chromatographic logP in data set [1] (reversed phase HPLC columns) of 1.42. In addition, the pest or weed control at 500 ppm in the data set on Phakospora pachyrhizi was at least 70%.
As for `CCN(C)C=Nc1cc(C)c(Sc2ccccc2F)cc1Br` [Example I-077, N'-[2-bromo-4-[(2-fluorophenyl)thio]-5-methylphenyl]-N-ethyl-N-methylmethanimidamide], the chromatographic logP in data set [1] (reversed phase HPLC columns) worked out at 1.75. The pest or weed control at 500 ppm in the data set on Phakospora pachyrhizi was at least 70%.
`CCN(C)C=Nc1cc(C)c(Sc2ccccc2C)cc1Br` [Example I-078, N'-[2-bromo-5-methyl-4-[(2-methylphenyl)thio]phenyl]-N-ethyl-N-methylmethanimidamide]: the chromatographic logP in data set [1] (reversed phase HPLC columns) was determined as 1.92. Besides, the pest or weed control at 500 ppm in the data set with Phakospora pachyrhizi was at least 70%.
`CCN(C)C=Nc1cc(C)c(Sc2ccccc2F)cc1C(C)C` [Example I-082, N-ethyl-N'-[4-[(2-fluorophenyl)thio]-2-isopropyl-5-methylphenyl]-N-methylmethanimidamide]: the chromatographic logP in data set [1] (reversed phase HPLC columns) is 1.9. Also, the pest or weed control at 500 ppm in the data set with Phakospora pachyrhizi was at least 70%.
For `CCN(C)C=Nc1cc(C)c(Sc2ccccc2C)cc1C1CC1` [Example I-085, N'-[2-cyclopropyl-5-methyl-4-[(2-methylphenyl)thio]phenyl]-N-ethyl-N-methylmethanimidamide], the chromatographic logP in data set [1] (reversed phase HPLC columns) was determined as 1.99. In addition, the pest or weed control at 500 ppm in the data set with Phakospora pachyrhizi was at least 70%.
Turning to `CCc1cc(Sc2ccccc2F)c(C)cc1N=CN(C)CC` [Example I-087], in data set [1], the chromatographic logP was found to be 1.77. The efficacy entry in the data set with Phakospora pachyrhizi was “at least 70%”.
In data set [1] (reversed phase HPLC columns), `CCN(C)C=Nc1cc(C)c(Sc2ccccc2)cc1C1CC1` [Example I-090, N'-(2-cyclopropyl-5-methyl-4-phenylsulfanylphenyl)-N-ethyl-N-methylmethanimidamide] displayed a chromatographic logP of 1.77. For the same molecule, the pest or weed control at 500 ppm in the data set on Phakospora pachyrhizi was at least 70%.
